This assay addresses Inositol 1,4,5-trisphosphate receptor type 1 (Rattus norvegicus). Briefly: Compound was tested for inhibition of specific [3H]Ins(1,4,5)P3 binding to Inositol 1,4,5-trisphosphate receptor in rat cerebellar membranes.

By pIC50 is commonly meant the IC50 on a negative log10 scale, so that one unit is a factor of ten. A low value points to a large IC50.

pIC50: −log10 of the molar value.

`O=P(O)(O)OC1C(O)C(CO)C(OP(=O)(O)O)C(OP(=O)(O)O)C1O` [Phosphoric acid mono-((3S,5R,6R)-3,5-dihydroxy-2-hydroxymethyl-4,6-bis-phosphonooxy-cyclohexyl) ester] gave a pIC50 of 7.57.

The record behind these values is BindingDB's records for doi:10.1016/0960-894X(96)00399-X (1996).
